Results published in US12685312B2, “Sulfonamide apyrase inhibitors” (Texas Crop Science, Inc., priority 2022, dated 2026).

These compounds were tested on apyrase (assay: Screen for apyrase inhibitors (Method 1, in vitro phosphate-release absorbance assay)). Details: inhibitor conc at 1 mM stock, 1 hr room temperature, absorbance 630 nm; rounded average of two assay results.
Format: biochemical
Method in brief: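 Phosphate-release colorimetric assay (Windsor method) in 60 mM Hepes, 3 mM MgCl2, 3 mM CaCl2, 3 mM ATP, pH 6.5, with compound or DMSO control added. Released phosphate developed with ammonium molybdate and ascorbic acid/TCA, then stopped with citrate/acetic acid.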
COc1ccc(NC(=O)c2ccc(S(=O)(=O)Nc3cccc(C(F)(F)F)c3)cc2)c(OC)c1 [I-399, N-(2,4-dimethoxyphenyl)-4-(N-(3-(trifluoromethyl)phenyl)sulfamoyl)benzamide] was tested, and the “% Inhibition of Apyrase” value was 43%.
For O=C(Nc1ccc(F)cc1)c1ccc(S(=O)(=O)Nc2ccccc2Cl)cc1 [I-400, 4-(N-(2-chlorophenyl)sulfamoyl)-N-(4-fluorophenyl)benzamide], the “% Inhibition of Apyrase” value was 41%.
With O=C(Nc1ccc2c(c1)OCO2)c1ccc(S(=O)(=O)Nc2ccccc2F)cc1 [I-401, N-(benzo[d][1,3]dioxol-5-yl)-4-(N-(2-fluorophenyl)sulfamoyl)benzamide] the “% Inhibition of Apyrase” value was 41%.
For COc1ccc(NC(=O)c2ccc(S(=O)(=O)Nc3ccccc3)cc2)cc1 [I-402, N-(4-methoxyphenyl)-4-(N-phenylsulfamoyl)benzamide], the “% Inhibition of Apyrase” value was 40%.
For COc1ccc(NC(=O)c2ccc(S(=O)(=O)Nc3cccc(C(F)(F)F)c3)cc2)cc1OC [I-403, N-(3,4-dimethoxyphenyl)-4-(N-(3-(trifluoromethyl)phenyl)sulfamoyl)benzamide], the “% Inhibition of Apyrase” value was 38%.
Cc1ccccc1NS(=O)(=O)c1ccc(C(=O)Nc2cccc([N+](=O)[O-])c2C)cc1 [I-404, N-(2-methyl-3-nitrophenyl)-4-(N-(o-tolyl)sulfamoyl)benzamide] was tested, and the “% Inhibition of Apyrase” value was 38%.
O=C(Nc1ccccc1OC(F)F)c1ccc(S(=O)(=O)Nc2ccccc2)cc1 [I-405, N-(2-(difluoromethoxy)phenyl)-4-(N-phenylsulfamoyl)benzamide] was tested, and the “% Inhibition of Apyrase” value was 35%.
With N#Cc1cccc(NC(=O)c2ccc(S(=O)(=O)Nc3ccccc3F)cc2)c1 [I-406, N-(3-cyanophenyl)-4-(N-(2-fluorophenyl)sulfamoyl)benzamide] the “% Inhibition of Apyrase” value was 30%.
In the case of O=C(Nc1cccc(C(F)(F)F)c1)c1ccc(S(=O)(=O)Nc2ccccc2F)cc1 [I-407, 4-(N-(2-fluorophenyl)sulfamoyl)-N-(3-(trifluoromethyl)phenyl)benzamide], the “% Inhibition of Apyrase” value is reported as 30%.
For COc1ccc(NC(=O)c2ccc(S(=O)(=O)Nc3ccc(F)cc3)cc2)cc1 [I-408, 4-(N-(4-fluorophenyl)sulfamoyl)-N-(4-methoxyphenyl)benzamide], the “% Inhibition of Apyrase” value was 30%.
COc1ccccc1NS(=O)(=O)c1ccc(C(=O)Nc2ccc3c(c2)OCO3)cc1 [I-409, N-(benzo[d][1,3]dioxol-5-yl)-4-(N-(2-methoxyphenyl)sulfamoyl)benzamide] was tested, and the “% Inhibition of Apyrase” value was 30%.
COc1ccccc1NS(=O)(=O)c1ccc(C(=O)Nc2cccc(C(F)(F)F)c2)cc1 [I-410, 4-(N-(2-methoxyphenyl)sulfamoyl)-N-(3-(trifluoromethyl)phenyl)benzamide] was tested, and the “% Inhibition of Apyrase” value was 29%.
With Cc1ccccc1NS(=O)(=O)c1ccc(C(=O)Nc2ccc(Cl)cc2)cc1 [I-411, N-(4-chlorophenyl)-4-(N-(o-tolyl)sulfamoyl)benzamide] the “% Inhibition of Apyrase” value was 21%.
For COc1ccc([N+](=O)[O-])cc1NS(=O)(=O)c1ccc(C(=O)Nc2ccc(F)cc2F)cc1 [I-412, N-(2,4-difluorophenyl)-4-(N-(2-methoxy-5-nitrophenyl)sulfamoyl)benzamide], the “% Inhibition of Apyrase” value was 18%.
With COc1ccc(NS(=O)(=O)c2ccc(C(=O)Nc3cccc(C(C)=O)c3)cc2)cc1 [I-413, N-(3-acetylphenyl)-4-(N-(4-methoxyphenyl)sulfamoyl)benzamide] the “% Inhibition of Apyrase” value was 16%.
For COc1ccccc1NS(=O)(=O)c1ccc(C(=O)Nc2ccc(F)c([N+](=O)[O-])c2)cc1 [I-414, N-(4-fluoro-3-nitrophenyl)-4-(N-(2-methoxyphenyl)sulfamoyl)benzamide], the “% Inhibition of Apyrase” value was 15%.
For O=C(Nc1ccc2c(c1)OCCCO2)c1ccc(S(=O)(=O)Nc2ccc(F)cc2)cc1 [I-415, N-(3,4-dihydro-2H-benzo[b][1,4]dioxepin-7-yl)-4-(N-(4-fluorophenyl)sulfamoyl)benzamide], the “% Inhibition of Apyrase” value was 13%.
In the case of COc1ccc(NS(=O)(=O)c2ccc(C(=O)Nc3ccc(F)cc3C)cc2)cc1 [I-416, N-(4-fluoro-2-methylphenyl)-4-(N-(4-methoxyphenyl)sulfamoyl)benzamide], the “% Inhibition of Apyrase” value is reported as 13%.
With COc1ccc(OC)c(NC(=O)c2cccc(S(=O)(=O)N3c4ccccc4CC3C)c2)c1 (stereo not shown) [I-429, N-(2,5-dimethoxyphenyl)-3-((2-methylindolin-1-yl)sulfonyl)benzamide] the “% Inhibition of Apyrase” value was 73%.
With COc1ccc([N+](=O)[O-])cc1NS(=O)(=O)c1cccc(C(=O)Nc2ccc(F)c([N+](=O)[O-])c2)c1 [I-430, N-(4-fluoro-3-nitrophenyl)-3-(N-(2-methoxy-5-nitrophenyl)sulfamoyl)benzamide] the “% Inhibition of Apyrase” value was 72%.
With CCOC(=O)c1sc(NC(=O)c2cccc(S(=O)(=O)Nc3ccc(F)cc3)c2)cc1C [I-431, ethyl 5-(3-(N-(4-fluorophenyl)sulfamoyl)benzamido)-3-methylthiophene-2-carboxylate] the “% Inhibition of Apyrase” value was 68%.
With CCOC(=O)c1sc(NC(=O)c2cccc(S(=O)(=O)Nc3ccccc3F)c2)cc1C [I-432, ethyl 5-(3-(N-(2-fluorophenyl)sulfamoyl)benzamido)-3-methylthiophene-2-carboxylate] the “% Inhibition of Apyrase” value was 66%.
In the case of Cc1cc(Cl)ccc1NC(=O)c1ccc(Cl)c(S(=O)(=O)Nc2ccc(Cl)cc2C)c1 [I-433, 4-chloro-N-(4-chloro-2-methylphenyl)-3-(N-(4-chloro-2-methylphenyl)sulfamoyl)benzamide], the “% Inhibition of Apyrase” value is reported as 65%.
In the case of CCOc1ccccc1NC(=O)c1ccc(Cl)c(S(=O)(=O)N2CCc3ccccc32)c1 [I-434, 4-chloro-N-(2-ethoxyphenyl)-3-(indolin-1-ylsulfonyl)benzamide], the “% Inhibition of Apyrase” value is reported as 65%.
For COc1ccc(NS(=O)(=O)c2cccc(C(=O)N3c4ccccc4CC3C)c2)cc1 (stereo not shown) [I-435, N-(4-methoxyphenyl)-3-(2-methylindoline-1-carbonyl)benzenesulfonamide], the “% Inhibition of Apyrase” value was 64%.
With COc1ccc(S(=O)(=O)N2CCc3ccccc32)cc1C(=O)Nc1ccccc1C [I-436, 5-(indolin-1-ylsulfonyl)-2-methoxy-N-(o-tolyl)benzamide] the “% Inhibition of Apyrase” value was 64%.
In the case of CC1CCc2c(sc(NC(=O)c3cccc(S(=O)(=O)Nc4ccccc4Cl)c3)c2C#N)C1 (stereo not shown) [I-437, 3-(N-(2-chlorophenyl)sulfamoyl)-N-(3-cyano-6-methyl-4,5,6,7-tetrahydrobenzo[b]thiophen-2-yl)benzamide], the “% Inhibition of Apyrase” value is reported as 64%.
In the case of Cc1cccc(NS(=O)(=O)c2cc(C(=O)N3CCCc4ccccc43)ccc2C)c1 [I-438, 2-methyl-5-(1,2,3,4-tetrahydroquinoline-1-carbonyl)-N-(m-tolyl)benzenesulfonamide], the “% Inhibition of Apyrase” value is reported as 63%.
In the case of Nc1c(Cl)cc(NC(=O)c2cccc(S(=O)(=O)N3CCc4ccccc43)c2)cc1Cl [I-439, N-(4-amino-3,5-dichlorophenyl)-3-(indolin-1-ylsulfonyl)benzamide], the “% Inhibition of Apyrase” value is reported as 63%.
With COc1ccc(S(=O)(=O)N2CCc3ccccc32)cc1C(=O)Nc1ccc(OC(F)F)c(Cl)c1 [I-440, N-(3-chloro-4-(difluoromethoxy)phenyl)-5-(indolin-1-ylsulfonyl)-2-methoxybenzamide] the “% Inhibition of Apyrase” value was 62%.
For O=C(c1cccc(S(=O)(=O)Nc2cccc(C(F)(F)F)c2)c1)N1CCCc2ccccc21 [I-441, 3-(1,2,3,4-tetrahydroquinoline-1-carbonyl)-N-(3-(trifluoromethyl)phenyl)benzenesulfonamide], the “% Inhibition of Apyrase” value was 62%.
COc1ccc(S(=O)(=O)N2CCc3ccccc32)cc1C(=O)Nc1cccc(C#N)c1 [I-442, N-(3-cyanophenyl)-5-(indolin-1-ylsulfonyl)-2-methoxybenzamide] was tested, and the “% Inhibition of Apyrase” value was 61%.
With O=C(Nc1cccc(F)c1)c1cccc(S(=O)(=O)N2CCc3ccccc32)c1 [I-443, N-(3-fluorophenyl)-3-(indolin-1-ylsulfonyl)benzamide] the “% Inhibition of Apyrase” value was 61%.
In the case of O=C(Nc1cccc2cccnc12)c1cccc(S(=O)(=O)N2CCc3ccccc32)c1 [I-444, 3-(indolin-1-ylsulfonyl)-N-(quinolin-8-yl)benzamide], the “% Inhibition of Apyrase” value is reported as 61%.
In the case of CCc1ccccc1NC(=O)c1cccc(S(=O)(=O)N2c3ccccc3CC2C)c1 (stereo not shown) [I-445, N-(2-ethylphenyl)-3-((2-methylindolin-1-yl)sulfonyl)benzamide], the “% Inhibition of Apyrase” value is reported as 61%.
O=C(Nc1cccc(S(=O)(=O)N2CCCCC2)c1)c1cccc(S(=O)(=O)N2CCc3ccccc32)c1 [I-446, 3-(indolin-1-ylsulfonyl)-N-(3-(piperidin-1-ylsulfonyl)phenyl)benzamide] was tested, and the “% Inhibition of Apyrase” value was 61%.
In the case of COc1ccc(S(=O)(=O)N2CCc3ccccc32)cc1C(=O)Nc1cc(C(F)(F)F)cc(C(F)(F)F)c1 [I-447, N-(3,5-bis(trifluoromethyl)phenyl)-5-(indolin-1-ylsulfonyl)-2-methoxybenzamide], the “% Inhibition of Apyrase” value is reported as 61%.
O=C(c1ccc(Cl)c(S(=O)(=O)N2CCc3ccccc32)c1)N1CCc2ccccc21 [I-448, (4-chloro-3-(indolin-1-ylsulfonyl)phenyl)(indolin-1-yl)methanone] was tested, and the “% Inhibition of Apyrase” value was 61%.
COc1ccc(NC(=O)c2cccc(S(=O)(=O)N3c4ccccc4CC3C)c2)cc1OC (stereo not shown) [I-449, N-(3,4-dimethoxyphenyl)-3-((2-methylindolin-1-yl)sulfonyl)benzamide] was tested, and the “% Inhibition of Apyrase” value was 61%.
With O=C(Nc1ccc(F)c(Cl)c1)c1cccc(S(=O)(=O)Nc2ccc(F)cc2)c1 [I-450, N-(3-chloro-4-fluorophenyl)-3-(N-(4-fluorophenyl)sulfamoyl)benzamide] the “% Inhibition of Apyrase” value was 61%.
For O=C(Nc1ccc2c(c1)OCO2)c1cccc(S(=O)(=O)N2CCc3ccccc32)c1 [I-451, N-(benzo[d][1,3]dioxol-5-yl)-3-(indolin-1-ylsulfonyl)benzamide], the “% Inhibition of Apyrase” value was 60%.
In the case of Cc1ccc(NC(=O)c2cccc(S(=O)(=O)N3CCc4ccccc43)c2)cc1C [I-452, N-(3,4-dimethylphenyl)-3-(indolin-1-ylsulfonyl)benzamide], the “% Inhibition of Apyrase” value is reported as 60%.
For Cc1ccc(NC(=O)c2ccc(Cl)c(S(=O)(=O)N3CCc4ccccc43)c2)cc1 [I-453, 4-chloro-3-(indolin-1-ylsulfonyl)-N-(p-tolyl)benzamide], the “% Inhibition of Apyrase” value was 60%.
